From article PMC12019475 (ACS Omega, 2025)

System: CcrM from Moraxella lincolnii
Assay: radiochemical DNA methylation assay
Format: biochemical, Lwoffella lincolnii
Details: read-out: M. lincolnii IC50; DNA and AdoMet as substrates

IC50: 45.8 ± 3.2 µM
Substance: NSC317003 [NSC 2]
